Marks after values point to notes of the source that are not given here.
What was measured:
rat 9L gliosarcomas = tested on: rat 9L gliosarcomas; parameters: method as in PMID 21559510; settings: cited from earlier work
[1] = tested on: human U251 glioma xenografts; parameters: method as in PMID 21559510; settings: human U251 glioma xenografts ref 12; cited from earlier work
[2] = tested on: primary acute myeloid leukemia (AML) cells; settings: cited from earlier work
[3] = cited from earlier work
intracerebral C6 glioma [4] = test: Survival time analysis in C6 intracerebral glioma rats; format: in vivo, Wistar rats; settings: VCR, treated daily for 21 days
Procedure: C6 tumors were maintained as subcutaneous tumors in rats.
The survival time analyses were performed in C6 intracerebral glioma rats. […] Animals were monitored daily for signs of mortality and weight. Rats were sacrificed when a loss of mobility, lethargy, hemorrhaging around the eyes, or a hunched posture was observed as previously described. The observation time was terminated when all the vehicle rats died. Then the other rats were euthanized by CO2 asphyxiation.

intracerebral C6 glioma [5] = tested on: intracerebral C6 glioma
Procedure: Adult Wistar rats (120–180 g, age 4–8 weeks) were obtained from the Animal Center at the Academy of Military Medical Sciences and had animal certification of SCXK (army) 2012–001. Animals were housed in collective cages at a temperature of 23 ± 2°C and relative humidity of 40% to 70%. All rats had free access to food and water.
Intracerebral tumor implantations were performed according to the following procedures. C6 tumors were maintained as subcutaneous tumors in rats. Subcutaneous masses were excised, dissociated, and mixed with matrigel on ice (BD Biosciences) at a ratio of 1:1. After removing of the hair on the skull, a small midline incision in the scalp was gently made under anesthesia with 2% sodium pentobarbital at a dose of 40mg/kg. C6 cells in matrigel (0.1 mL of the cell/matrigel mixture containing 10^8 cells /mL) were carefully injected into the right frontal cortex by a special 16-gauge stainless steel needle with 5 mm needle tubing. Implantation coordinates were determined from Swanson’s Stereotaxic Atlas guidelines (1992): 1.0 mm anterior and 3.0 mm lateral to bregma, at a depth of 5.0 mm from the brain surface. […] The syringe was slowly retracted, the hole was sealed with bone wax, and the incision was sutured under aseptic conditions. […] Then 0.015 mg/kg buprenorphine (s.c.) was administered to relieve the pain. The rats were replaced in cages and allowed to recover from anesthesia.
Rats were divided into the following 5 treatment groups 24 h after surgery (n = 9 rats /group) according to rat weight: 1) vehicle (normal saline: NS); 2) vincristine (VCR) at 100μg/kg; 3) DMAMCL at 25 mg/kg; 4) DMAMCL at 50 mg/kg; and 5) DMAMCL at 100 mg/kg. All drugs were prepared in NS and administered once daily for 21 days. DMAMCL was administered orally, and VCR was injected into the caudal vein. Rats were weighed and monitored for signs of mortality daily. Twenty one days into the treatment, rats were euthanized via CO2 asphyxiation under deep anesthesia by sodium pentobarbital. Brains and tumors were separated from the cerebellum and medulla oblongata, and weighed, photographed, fixed in formalin, and embedded in paraffin for sectioning. The tumor: brain weight ratio was assessed to observe the degree of tumor cell growth in brain. Serial sections (5 μm in thickness) were stained by hematoxylin and eosin (HE).

rat 9L gliosarcoma = tested on: rat 9L gliosarcoma; parameters: method as in PMID 21727209; settings: direct injection into the brain using biodegradable beads, increased from 12.5 days ref 26; cited from earlier work
[6] = VCR 100μg/kg caudal vein once daily for 21 days

Compound: C=CCc1ccc(O)c(-c2ccc(O)c(CC=C)c2)c1 [Honokiol]
- Increase of survival compared to controls (rat 9L gliosarcomas): 5 days
- Reduction of tumor volume (rat 9L gliosarcomas; rat 9L gliosarcomas ref 12): 52.77%
- Reduction of tumor volume [1]: 50.21%

Compound: C=C1C(=O)O[C@H]2[C@H]1CCC(C)=C1CC[C@@](C)(O)[C@@H]12 [MCL, micheliolide]
- Number of colony-forming units of primary AML cells [2]: greatly reduced the number of colony-forming units
- Stability compared with PTL [3]: more stable than PTL

Compound: C=C1C(=O)O[C@H]2[C@H]1CC/C(C)=C/CC[C@@]1(C)O[C@@H]21 [PTL, Parthenolide]
- Stability ([3]; acidic and basic conditions ref 15): unstable under both acidic and basic conditions

Compound: CC[C@]1(O)C[C@H]2CN(CCc3c([nH]c4ccccc34)[C@@](C(=O)OC)(c3cc4c(cc3OC)N(C=O)[C@H]3[C@@](O)(C(=O)OC)[C@H](OC(C)=O)[C@]5(CC)C=CCN6CC[C@]43[C@@H]65)C2)C1 [VCR, vincristine, reference compound]
- Median survival of deceased animals (intracerebral C6 glioma [4]): 24 days
- Time of death End (intracerebral C6 glioma [4]): 57 days
- Time of death Start (intracerebral C6 glioma [4]): 23 days
- Survival (# of rats) End (intracerebral C6 glioma [4]; 63 days, n = 10): 7 # of rats
- Survival (intracerebral C6 glioma [4]; at 63 days): 70 ^*** %
- Mean survival (intracerebral C6 glioma [4]; observation 63 days): 54.5 ± 16.4 days
- Median survival (intracerebral C6 glioma [4]; observation 63 days): 63 days
- Deaths during the 21-day study (intracerebral C6 glioma [5]; VCR 100μg/kg caudal vein once daily): One rat died on day 18
- Inhibition (percent decrease in tumor weight compared to the vehicle group) (intracerebral C6 glioma [5]; [6]): 81.6%
- Tumor weight (intracerebral C6 glioma [5]; [6]): 0.13 ± 0.07 g
- Tumor/brain (intracerebral C6 glioma [5]; [6]): 6.5 ± 2.6 %
- Histopathology of brain tissue (HE) (intracerebral C6 glioma [5]; VCR 100μg/kg, 21 days): appeared similar to normal brain tissues

Compound: CO[C@H]1C[C@@H]2CC[C@@H](C)[C@@](O)(O2)C(=O)C(=O)N2CCCC[C@H]2C(=O)O[C@H]([C@H](C)C[C@@H]2CC[C@@H](O)[C@H](OC)C2)CC(=O)[C@H](C)/C=C(\C)[C@@H](O)[C@@H](OC)C(=O)[C@H](C)C[C@H](C)/C=C/C=C/C=C/1C [rapamycin, Rapamycin]
- Survival (rat 9L gliosarcoma): 29 days

— publication PMC4320118, “Micheliolide Derivative DMAMCL Inhibits Glioma Cell Growth In Vitro and In Vivo” (PLoS ONE, 2015)
